Here are results for 4 molecules from article PMC8019567 (Parasite, 2021).

In brackets after ≈: the same amount, converted by molar mass. Read-outs that look alike come from different tables or passages of the source.

For data set [1] the following is noted: in vivo.
From the text: (§1) All topical treatments were applied on one spot directly on the skin, after parting the hair, in the midline of the neck between the base of the skull and the shoulder blades. The intra-venous injection was given in the cephalic vein.
(§2) All blood samples were collected into lithium heparin tubes and processed into plasma by centrifugation.
(§3) This study was designed to evaluate the main pharmacokinetic parameters (Cmax, Tmax, Clast, Tlast, half-life, AUC, bioavailability) of the three compounds administered topically once in the novel formulation at the recommended minimum dose, and the non-interference of the three compounds between each other.
(§4) Group 2 was treated topically with esafoxolaner alone, formulated with identical solvents/excipients as those of the novel formulation, for non-interference evaluation of esafoxolaner. […] Group 4 was treated intravenously with esafoxolaner for bioavailability calculation of topical esafoxolaner in the novel formulation.
(§5) The cat plasma samples and internal standards were subjected to semi-automated solid phase extraction in a 96-well plate format followed by reversed-phase HPLC with gradient elution. The extracted analytes were quantified by an AB Sciex API 5000 mass spectrometer system using an electrospray interface. […] Chromatograms were integrated by the Analyst® 1.6.2 software and peak areas were determined.
(§6) The validated lower and upper limits of quantitation were 0.2 and 100 ng/mL, respectively. Sample concentrations were determined based on a fortified matrix calibration curve ranging from 0.2 to 100 ng/mL for each analyte with quality control samples, control plasma samples, and acceptance criteria according to EMA and FDA guidelines [4, 7]. Repeatability (precision), accuracy, assay specificity, dilution, recovery and matrix effect, carryover, stability in plasma and all solutions was established.
(§7) Pharmacokinetic (PK) parameters were calculated from individual plasma concentrations using the non-compartmental analysis function of WinNonlin® software (Phoenix 64 Build, version 6.3). The non-compartmental approach was consistent with the extravascular (topical) or IV bolus route of administration.
(§8) The peak drug plasma concentration Cmax and the time from dosing to the maximum concentration values Tmax were obtained directly from plasma concentration versus time data for each cat and then averaged for each topical treatment group. The terminal elimination phase was determined using at least the final three observed concentrations and not including Cmax. The first order rate constant, λz, associated with the terminal log-linear portion of the curve was estimated via linear regression of the log plasma concentration versus time curve. The terminal plasma half-life using ln (2)/λz was calculated for each animal, and then averaged for each treatment group. The area under the concentration versus time curve (AUC) from the time of dosing to the time to the last quantifiable concentration (AUC0−Tlast) was calculated using the linear up, log down trapezoidal method, and extrapolated to infinity (AUC0−inf) using the formula AUC0−Tlast + Clast/λz.
(§9) The systemic clearance of esafoxolaner in plasma (Cls) defined as dose/AUC0−inf, and the volume of distribution at steady state (Vss), which is AUMC0−inf/AUC0−inf × Cls, was calculated from WinNonlin® for the IV esafoxolaner group only. Due to the long terminal plasma half-life of esafoxolaner, each cat was not used as its own control and bioavailability was calculated on the average.
For data set [2] the following is noted: first (pilot) study; topical esafoxolaner only, twice at a 28-day interval, 23× the maximum exposure dose; cats; cited from earlier work.
Data set [3] concerns ticks (Ixodes scapularis). More on the design: method as in internal Sponsor’s data. The settings on record: plasma level, ref internal Sponsor’s data; cited from earlier work.
The nature of data set [4]: Study #2: dose proportionality/linearity after a single topical dose of NexGard Combo at 0.5x, 1x, 2x. The format is in vivo, cats. The method, then: Blood samples were collected prior to treatment and over a period of 91 days after the treatment, as detailed in Table 1. […] Dose proportionality for the three active ingredients was assessed by calculating the linear relationship between AUC or Cmax and the dose using the simple linear regression model.

A further data set deals with C. felis. More on the design: method as in internal Sponsor’s data. To be noted: plasma level, ref internal Sponsor’s data; cited from earlier work.
Details of data set [5]: method as in PMID 24703069. To be noted: topical Broadline; cats; cited from earlier work.
Another data set is described as follows: in vivo. The settings on record: topical or ocular, 10 mg/kg.
The next data set has as its system ear mites. More on the design: method as in PMID 29887026. To be noted: off-label in cats, 2.5 mg/kg; cited from earlier work.
Data set [6] can be described thus: Study #2: multiple-dose kinetics, accumulation and time to steady state (five topical doses at 28-day intervals). It is filed as in vivo. To be noted: repeated topical NexGard Combo at minimum recommended dose at 4-week intervals; cats. The method, then:
Group 4, the accumulation and time to steady state group, was treated five times at 28-day intervals, topically with NexGard® Combo at the minimum recommended dose. In this group, blood samples were collected prior to each treatment, during the 4 weeks following each treatment, and for 8 weeks after the last treatment, as detailed in Table 1.
Chromatograms were integrated by the Analyst® 1.6.2 software and peak areas were determined.
The validated lower and upper limits of quantitation were 0.2 and 100 ng/mL, respectively. Sample concentrations were determined based on a fortified matrix calibration curve ranging from 0.2 to 100 ng/mL for each analyte with quality control samples, control plasma samples, and acceptance criteria according to EMA and FDA guidelines.
Accumulation ratios were calculated using Cmax and AUC for the three active ingredients after the 1st and 5th dose following five topical doses of the novel formulation.

Data set [7] is described as follows: Study #1: single-dose pharmacokinetics and non-interference in cats (plasma, LC-MS/MS). To be noted: NexGard Combo single topical at minimum recommended dose.
From the text: as §1, §2, §3, §4, §5, §6, §7, §8, §9
The mark [8] stands for this setting: 0.5× group compared to 1× group.
The mark [9] stands for this setting: NexGard Combo single topical 0.5× (esafoxolaner 0.72, praziquantel 5, eprinomectin 0.25 mg/kg), cats, mean.
Where [10] appears, read: NexGard Combo single topical 1× (esafoxolaner 1.44, praziquantel 10, eprinomectin 0.5 mg/kg), cats, mean.
Where [11] appears, read: NexGard Combo single topical 2× (esafoxolaner 2.88, praziquantel 20, eprinomectin 1 mg/kg), cats, mean.

From the text for in vivo: as §1, §2, §3, §4, §5, §6, §7, §8, §9

In general, Cmax refers to the maximum level reached in the sampled fluid or tissue. For orientation: Tmax means the time from dosing to the highest level. As a reminder, the EC90 is the concentration at which the effect reaches the 90% level. As to `O=C(CNC(=O)c1ccc(C2=NO[C@@](c3cc(Cl)cc(C(F)(F)F)c3)(C(F)(F)F)C2)c2ccccc12)NCC(F)(F)F` [Esafoxolaner, esafoxolaner], in [1], the “Vss (volume of distribution)” value stood at 4.0 L/kg; the “absolute (topical) bioavailability” value worked out at 47.2%; the “time until which efficacious plasma levels (EC90) were maintained, from 24 h” value is listed as 6-8 weeks. Further, in data set [1] (iv, 1.44 mg/kg), the “AUC0−Tlast” value is 9586 ± 1985 ng·days/mL, the “AUC0−inf” value was 10,542 ± 2029 day × ng/mL, the “Cl (systemic clearance)” value was found to be 5.87 ± 1.23 mL/h/kg and the “T1/2 (plasma half-life)” value was found to be 504 ± 101 h. Besides, in data set [1] (iv, 1.44 mg/kg), the “Vss (volume of distribution at steady-state)” value came out at 4.016 ± 1.19 L/kg and the “half-life, range of individuals” value lay within 355 to 631 h. For the same molecule, in data set [1] (topical or ocular, 1.44 mg/kg), the “AUC0−Tlast” value came to 6368 ± 1665 ng·days/mL, the “AUC0−inf” value is 7181 ± 2250 ng·days/mL, the Cmax is on record as 218 ± 68 ng/mL and the “T1/2 (plasma half-life)” value came out at 499 ± 154 h. Further, in [1] (topical or ocular, 1.44 mg/kg), the Tmax is 90 ± 74.4 h and the “individual plasma half-lives (range)” value was in the range of 19.4 to 27.8 days. Also, the adverse reactions result in data set [2] is listed as “no significant adverse reactions”. Also, the EC90 in data set [3] was 0.0431 µg/mL (≈ 0.0689 µM). In addition, in data set [4] (in vivo), the “dose proportionality of PK parameters” value is listed as “dose-proportional” and the “persistence of a quantifiable plasma concentration” value is on record as “more than 13 weeks”. In addition, the EC90 in the data set with C. felis is 0.0191 ± 0.0021 µg/mL (≈ 0.0305 µM).

Broadly, the half-life is how long it takes for the measured level to halve. A higher half-life goes with slow loss. For `O=C(C1CCCCC1)N1CC(=O)N2CCc3ccccc3C2C1` (stereo not drawn) [Praziquantel, praziquantel], in data set [1] (cat), the “time at which maximum concentrations were reached (range)” value fell in the range of 4 to 8 h and the “time of last quantifiable plasma concentrations (range)” value lay within 7 to 42 days. The “bioavailability in the Broadline formulation” value in data set [5] is recorded as 45%. Also, in the data set “in vivo”, the concentration peaked (Cmax) at 107 ± 59 ng/mL, the Tmax is 7.01 h and the half-life was 103 h. In data set [4] (in vivo, topical or ocular, 5 mg/kg), this molecule returned a Cmax of 54.7 ± 28.8 ng/mL. The molecule further yielded a Cmax in data set [4] (in vivo, topical or ocular, 10 mg/kg) of 126 ± 87.2 ng/mL. In data set [4] (in vivo, topical or ocular, 20 mg/kg), the Cmax was 317 ± 209 ng/mL.

Take `O=C(CNC(=O)c1ccc(C2=NOC(c3cc(Cl)cc(C(F)(F)F)c3)(C(F)(F)F)C2)c2ccccc12)NCC(F)(F)F` (stereo not drawn) [afoxolaner]: the “acaricidal efficacy against ear mites” value with ear mites is recorded as “efficacious”.

As to eprinomectin, the “dose by which steady state was reached” value in data set [6] is “fifth and five”. In addition, in [5], the “bioavailability in the Broadline formulation” value is reported as 31%. Besides, the “AUC0−Tlast Ratio” value in data set [4] (setting [8]) is given as 0.5; in [4] (2× group compared to 1× group), 2.4. Besides, the figures for the “Cmax Ratio” value in data set [4] (setting [8]) and in [4] (2× group compared to 1× group) were 0.4 and 2.3, respectively. For the same molecule, the “dose proportionality of PK parameters” value in data set [4] (0.5× to 2× the minimum dose (esafoxolaner 0.72–2.88, praziquantel 5–20, eprinomectin 0.25–1.0 mg/kg), single topical NexGard Combo) is “dose-proportional”. Also, the “AUC0−Tlast” value stood at 53.6 ± 19.9 ng·days/mL in data set [4] (setting [9]), 97.8 ± 37.4 ng·days/mL in [4] (setting [10]) and 233 ± 133 ng·days/mL in [4] (setting [11]). Also, the figures for the Cmax in [4] (setting [9]), in data set [4] (setting [10]) and in data set [4] (setting [11]) were 9.44 ± 4.26 ng/mL, 24.1 ± 20.8 ng/mL and 54.3 ± 35.8 ng/mL, respectively. Also, the “mean Tmax” value in data set [7] is reported as 35 h. The “time to concentrations below the limit of quantitation, on average” value in data set [7] (LLOQ 0.2 ng/mL) was 28 days.
